Test results as given in patent US9334256B2, “Agents and methods for treating ischemic and other diseases” (NoNO INC., priority 2011, dated 2016).

Target: T1, TRPM7 (Mus musculus, UniProt Q923J1)
T1 construct: expressed in transfected cells; host or cells: HEK-293 tSA (HEK-293T) cells, transient transfection with Lipofectamine 2000
Assay: PI uptake cell death assay in TRPM7-expressing HEK-293 cells (type of assay from Example 1)
Format: cell-based, murine
From the text: The TRPM7 channel provides a pathway for mono- and divalent cations into the cell, and is unique in that it contains a functional C-terminal α-kinase domain. […] The induction of chemical anoxia in host cells such as recombinant HEK293 cells can be used to activate TRPM7. This activation is detectable with the use measurements of cellular calcium accumulation. This is achievable with the use of a fluorescent calcium indicator. Alternatively, this activation can also be measured using radiolabelled Ca2+ (^45Ca^2+) as described previously by Sattler et al. (Sattler et al., 1998) and Aarts et al. (Aarts et al., 2003).
Hoechst 33342 was purchased as a 10 mg/mL solution in water (Molecular Probes Inc., Eugene, Oreg.). Propidium iodide (PI) was purchased as a powder and prepared by dissolving in PBS at 1 mg/mL. PI solutions were stored at 4° C. until use. Hoechst and PI were added directly to cell culture to 5 μg/mL and 10 μg/mL respectively. Cells were incubated at room temperature or at 37° C. for 10 minutes to allow for adequate uptake, and fluorescence observed using a NIKON Eclipse TE2000 inverted microscope and TE-FM Epi-Fluorescence attachment (Nikon Canada).
Untransfected cells or cells transfected with the TRPM7/pTracer or ΔPDZ/pTracer construct were plated onto 24-well plates, 24-hours post-transfection. Untransfected cells were plated at 0.75×10^6 cells/well and transfected cells at 1×10^6 cells/well. The plates were coated with poly-D-lysine to strengthen cell adhesion and to minimize cell loss during washes. Cells were loaded by incubation with 5 μM fluo-3 AM and 0.02% pluronic in HBSS at 37° C. for 30 minutes. Following loading, cells were washed with an aglycaemic HBSS containing, in mM: 20 N-methyl-D-glucamine (NMDG), 121 NaCl, 5 KCl, 10 HEPES acid, 10 HEPES-Na salt, 3 NaHCO3, 1 Na-pyruvate, and 1.8 CaCl2, pH adjusted to 7.4 with HCl. Calcium uptake, as assessed by fluo-3 fluorescence, was measured in response to 0, 5, 10, 15, 20, or 25 mM sodium cyanide (NaCN; Mallinckrodt Baker Inc., Phillipsburg, N.J.) dissolved in aglycaemic HBSS. A 250 mM NaCN stock was prepared in water and stored at room temperature for up to 2 weeks. Measurements of fluo-3 fluorescence were taken over a 2 hour period at 10 minutes intervals at room temperature (22-25° C.). Calcium uptake assays were performed 48 hours post-transfection.
Cell death, as assessed by PI uptake, was examined at the end of the 2 hour calcium uptake assay. Cells were stained with 10 μg/mL PI and PI fluorescence measured using the Fluoroskan microplate reader (λ excitation=590 nm, λ emission=630 nm) and accompanying Ascent software (Thermo Electron Corp.). To obtain a reading of maximal fluorescence (Fmax), 0.5% Triton X-100 was added to each well and allowed to incubate for 20 minutes. Cell death assays were performed 48 hours post-transfection.
Data was entered into Excel (Microsoft, Seattle, Wash.) or SigmaPlot (SPSS Inc., Chicago, Ill.) for analysis. Pooled data are presented as the mean of at least 3 separate experiments±sem. Calcium uptake is expressed as a fraction of baseline uptake: ΔFt=(Ft−Fo)/Fo where Ft is the fluorescence at time t, and Fo is the fluorescence at baseline. Cell death is expressed as a percentage of total cell death: cell death (%)=Ft/Fmax×100 where Ft is the fluorescence at time t and Fmax is the maximal fluorescence obtained by permeabilization with Triton X-100. Concentration-response curves were fit by nonlinear regression with a 4 parameter logistic curve represented by the following equation: y=min+{(max−min)/[1+(x/EC50)n]} where y is the response at concentration x, min is the minimal response, max is the maximal response, EC50 is the concentration required for half-maximal response, and n is the Hill slope. Statistical analysis of data was carried out with a two-tailed Student's t test, or a one-way analysis of variance (ANOVA) followed by post hoc pairwise multiple comparisons testing using the Holm-Sidak method, where appropriate. […]

[1] = Table Y, commercially available compounds
[2] = Table X, the lower the number, the more potent in protecting against cell death
[3] = Table X, the lower the number, the more potent

T1 sequence (Q923J1 whole entry): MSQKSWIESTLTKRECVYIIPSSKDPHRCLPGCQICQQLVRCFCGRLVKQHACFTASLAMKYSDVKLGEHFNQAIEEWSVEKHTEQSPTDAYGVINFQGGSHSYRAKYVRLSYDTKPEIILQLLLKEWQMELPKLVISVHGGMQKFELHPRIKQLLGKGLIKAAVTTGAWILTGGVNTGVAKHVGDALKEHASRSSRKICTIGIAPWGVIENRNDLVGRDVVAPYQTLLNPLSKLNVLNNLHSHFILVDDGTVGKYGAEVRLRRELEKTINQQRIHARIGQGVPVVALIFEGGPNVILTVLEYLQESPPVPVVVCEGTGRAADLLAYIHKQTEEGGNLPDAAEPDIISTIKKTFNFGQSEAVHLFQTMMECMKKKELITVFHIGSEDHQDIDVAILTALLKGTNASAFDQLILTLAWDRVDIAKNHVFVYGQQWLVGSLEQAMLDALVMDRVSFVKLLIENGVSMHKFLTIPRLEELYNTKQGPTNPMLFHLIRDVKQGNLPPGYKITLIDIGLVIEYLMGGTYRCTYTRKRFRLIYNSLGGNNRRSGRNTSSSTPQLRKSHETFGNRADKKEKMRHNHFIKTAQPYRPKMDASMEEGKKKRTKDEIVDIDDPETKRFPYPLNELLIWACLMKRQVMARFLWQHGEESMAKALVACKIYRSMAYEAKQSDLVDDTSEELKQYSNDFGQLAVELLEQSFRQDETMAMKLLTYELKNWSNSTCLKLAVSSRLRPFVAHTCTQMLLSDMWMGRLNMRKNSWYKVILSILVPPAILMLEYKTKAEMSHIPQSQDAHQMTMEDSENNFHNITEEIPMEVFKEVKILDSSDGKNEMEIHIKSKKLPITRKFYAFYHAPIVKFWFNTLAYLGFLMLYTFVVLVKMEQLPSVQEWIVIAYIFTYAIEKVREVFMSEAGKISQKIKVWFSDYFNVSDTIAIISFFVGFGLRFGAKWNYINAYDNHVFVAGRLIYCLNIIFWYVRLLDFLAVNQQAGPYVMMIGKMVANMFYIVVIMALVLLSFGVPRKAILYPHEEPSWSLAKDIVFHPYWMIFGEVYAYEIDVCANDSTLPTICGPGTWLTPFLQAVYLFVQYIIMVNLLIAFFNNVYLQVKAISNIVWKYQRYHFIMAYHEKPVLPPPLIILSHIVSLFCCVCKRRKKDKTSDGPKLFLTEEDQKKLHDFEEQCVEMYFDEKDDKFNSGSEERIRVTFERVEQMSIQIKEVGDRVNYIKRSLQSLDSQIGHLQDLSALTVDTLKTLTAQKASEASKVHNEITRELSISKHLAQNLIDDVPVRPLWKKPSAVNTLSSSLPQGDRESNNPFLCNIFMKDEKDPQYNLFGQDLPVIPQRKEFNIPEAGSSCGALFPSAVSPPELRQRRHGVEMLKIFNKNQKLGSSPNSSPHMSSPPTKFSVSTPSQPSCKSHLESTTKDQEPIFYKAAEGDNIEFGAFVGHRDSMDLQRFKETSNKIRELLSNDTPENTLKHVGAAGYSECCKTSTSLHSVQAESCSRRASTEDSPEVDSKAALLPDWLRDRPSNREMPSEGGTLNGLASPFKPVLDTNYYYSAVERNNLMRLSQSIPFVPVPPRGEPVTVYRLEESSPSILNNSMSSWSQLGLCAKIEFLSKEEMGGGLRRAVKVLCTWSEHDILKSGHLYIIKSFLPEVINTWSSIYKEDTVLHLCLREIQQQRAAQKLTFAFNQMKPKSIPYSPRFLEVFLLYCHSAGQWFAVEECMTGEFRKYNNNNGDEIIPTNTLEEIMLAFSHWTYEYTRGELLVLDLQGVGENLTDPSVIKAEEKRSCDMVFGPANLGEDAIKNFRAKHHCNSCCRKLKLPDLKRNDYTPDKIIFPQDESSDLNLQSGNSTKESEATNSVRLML

SMILES	Normalized ratio of PI uptake (5 μM) [1]	Normalized ratio of PI uptake (10 μM) [1]	IC50 [1] [µM]	Normalized ratio of PI uptake (5 μM) [2]	Normalized ratio of PI uptake (10 μM) [3]	IC50 (Table X) [µM]
COc1ccc(-c2n[nH]cc2CN(C)Cc2cc3ccccc3s2)cc1F [Ambcb42783454 #13, reference compound]	0.498	0.266	4.7			
Cc1ccc2c(c1)CCCN2C(=O)c1sc2ccccc2c1Cl [Compound 2]				0.179	0.018	3.27
Cc1ccc2c(c1)CCCN2C(=O)c1sc2cc(F)ccc2c1Cl [Compound 7]				0.274	0.067	4.05
Fc1ccc2c(c1)CCN=C2c1sc2ccccc2c1Cl [Compound 42]				0.304	0.010	3.99
Fc1ccc2c(c1)CCNC2c1sc2ccccc2c1Cl (centres unmarked) [Compound 43]				0.060	0.020	2.54
CN1CCc2cc(F)ccc2C1c1sc2ccccc2c1Cl (centres unmarked) [Compound 44]				0.336	0.070	4.25
Cc1ccc2c(c1)CCCN2C(=O)c1sc2ccccc2c1F [Compound 45]				0.399	0.072	4.66
Cc1ccc2c(c1)CCCN2C(=O)c1sc2cc(C(F)(F)F)ccc2c1Cl [Compound 46]				0.149	0.137	1.88
COc1ccc(C)c(N(Cc2ccccn2)C(=O)c2sc3ccccc3c2Cl)c1 [Compound 52]				0.079	0.022	1.29
Cc1ccc2c(c1)CCNC2c1sc2ccccc2c1Cl (centres unmarked) [Compound 54]				0.024	0.029	1.5
Cc1ccc2c(c1)CCN(C)C2c1sc2ccccc2c1Cl (centres unmarked) [Compound 55]				0.147	0.059	2.14
COc1cc(OC)c2c(C)c(Cc3ccccc3)c(=O)[nH]c2c1 [Compound 56]				0.255	0.240	0.43
Cc1ccc(N(Cc2ccccn2)C(=O)c2sc3ccccc3c2Cl)c(C)c1 [Compound 57]				0.110	0.039	1.71
O=S(=O)(Nc1sc2ccccc2c1Cl)c1ccc(F)cc1 [Compound 64]				0.154	0.080	2.87
COc1ccc2c(Cl)c(C3=NCCc4cc(OC)c(OC)cc43)sc2c1 [Compound 67]				0.054	0.019	0.37
COc1ccc2sc(C3=NCCc4cc(OC)c(OC)cc43)c(Cl)c2c1 [Compound 70]				0.035	0.013	0.47
COc1ccc2c(Cl)c(C3NCCc4cc(OC)c(OC)cc43)sc2c1 (centres unmarked) [Compound 71]				0.005	0.003	0.42
COc1cc2c(cc1OC)C(c1sc3cc(C(F)(F)F)ccc3c1Cl)NCC2 (centres unmarked) [Compound 72]				0.000	0.000	0.39
COc1cc2c(cc1OC)C(c1sc3cccc(C)c3c1Cl)NCC2 (centres unmarked) [Compound 73]				0.000	0.000	0.18

SMILES	Normalized ratio of PI uptake (5 μM) [1]	Normalized ratio of PI uptake (10 μM) [1]	IC50 [1] [µM]	Normalized ratio of PI uptake (5 μM) [2]	Normalized ratio of PI uptake (10 μM) [3]	IC50 (Table X) [µM]
Cc1c(Cc2cccc(Cl)c2)c(=O)oc2cc(O)cc(O)c12 [Compound 77]				0.071	0.003	1.99
COc1cc(OC)c2c(C)c(Cc3ccc(Cl)cc3)c(=O)[nH]c2c1 [Compound 93]				0.071	0.041	0.21
COc1cc(OC)c2c(C)c(Cc3cccc(Cl)c3)c(=O)[nH]c2c1 [Compound 94]				0.073	0.042	0.65
Cc1ccc(N(Cc2ccncc2)C(=O)c2sc3ccccc3c2Cl)c(C)c1 [Compound 98]				0.36	0.067	2.53
COc1ccc(C)c(N(Cc2cccc(C)n2)C(=O)c2sc3ccccc3c2Cl)c1 [Compound 102]				0.206	0.059	1.61
COc1ccc(C)c(N(CC(=O)c2cccs2)C(=O)c2sc3ccccc3c2Cl)c1 [Compound 103]				0.444	0.312	0.81
Cc1ccc(N(Cc2ccc3ccccc3n2)C(=O)c2sc3ccccc3c2Cl)c(C)c1 [Compound 104]				0.307	0.094	0.98
COc1ccc(C)c(N(Cc2ccc3ccccc3n2)C(=O)c2sc3ccccc3c2Cl)c1 [Compound 105]				0.07	0.17	0.86
Cc1ccc(N(Cc2cccnc2)C(=O)c2sc3ccccc3c2Cl)c(C)c1 [Compound 106]				0	0.054	1.2
COc1cc2ccnc(-c3sc4ccccc4c3Cl)c2cc1OC [Compound 108]				0.038	0.11	1.09
COc1cccc2c1CCN=C2c1sc2ccccc2c1Cl [Compound 110]				0.037	0.06	1.38
Fc1cccc2c1CCN=C2c1sc2ccccc2c1Cl [Compound 112]				0.666	0.244	
Cc1cccc2sc(C3=NCCc4ccc(Cl)cc43)c(Cl)c12 [Compound 116]				0.788	0.358	4.75
COc1ccc2c(c1)C(c1sc3ccccc3c1Cl)NCC2 (centres unmarked) [Compound 124]				0	0.06	1.13
Clc1cccc2c1CCNC2c1sc2ccccc2c1Cl (centres unmarked) [Compound 125]				0.363	0.122	4.69
COc1cc2c(cc1OC)C(c1sc3cc(OC)c(OC)cc3c1Cl)NCC2 (centres unmarked) [Compound 126]				0.012	0.059	1.03
Cc1cccc2sc(C3NCCc4c(F)cccc43)c(Cl)c12 (centres unmarked) [Compound 127]				0.038	0.044	0.93
COc1ccc2c(c1)C(c1sc3cccc(C)c3c1Cl)NCC2 (centres unmarked) [Compound 128]				0.01	0.06	0.43
CCN1CCc2cc(OC)c(OC)cc2C1c1sc2ccccc2c1Cl (centres unmarked) [Compound 129]				0.05	0.07	2.23
